Consider 25 compounds from ChEMBL document CHEMBL1201862, “PubChem BioAssay data set” (2004).

The structures appear in SMILES notation. Calls of active or inactive are those of the source.

The target of the first assay is Cytochrome P450 2D6 (Homo sapiens, UniProt P10635).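 Also: CYP2D6 member of a cytochrome P450 panel assay.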
Sequence of Cytochrome P450 2D6 (P10635 whole entry): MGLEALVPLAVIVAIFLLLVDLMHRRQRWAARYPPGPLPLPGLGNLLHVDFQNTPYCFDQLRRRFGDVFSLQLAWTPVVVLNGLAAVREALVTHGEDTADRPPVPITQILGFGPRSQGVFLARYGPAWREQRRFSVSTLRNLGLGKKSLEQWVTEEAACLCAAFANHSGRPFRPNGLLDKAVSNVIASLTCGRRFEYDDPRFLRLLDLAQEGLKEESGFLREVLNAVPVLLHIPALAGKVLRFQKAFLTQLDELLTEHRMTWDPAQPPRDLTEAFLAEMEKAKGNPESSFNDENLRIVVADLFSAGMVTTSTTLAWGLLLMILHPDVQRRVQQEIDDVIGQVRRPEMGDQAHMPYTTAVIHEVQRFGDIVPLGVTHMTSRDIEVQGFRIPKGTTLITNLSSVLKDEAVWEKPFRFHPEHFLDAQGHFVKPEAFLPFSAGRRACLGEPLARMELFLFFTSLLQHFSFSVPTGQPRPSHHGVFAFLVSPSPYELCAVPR
Take `CCNc1ncc2nc(C)c(=O)n(C)c2n1`: the AC50 was 39.8 µM (inconclusive). For `COc1ccc(O[C@H]2C=C[C@@H](c3ccccc3)O[C@H]2COC(=O)CC/C(C)=N/OCC[C@@H]2C=C[C@H](OC(C)=O)[C@H](COC(C)=O)O2)cc1`, the AC50 was 0.794 µM (inconclusive). Same read-out and setting: under `CC(C)OC(=O)c1nnn(-c2nonc2N)c1CSc1ccccn1` stands 15.8 µM (inconclusive); under `c1ccc(CN2CCCC3(CCNCC3)C2)cc1`, 12.6 µM (inconclusive); under `CCN(CC)C[C@@H](O)c1ccc2ccc3ccccc3c2c1`, 3.16 µM (inconclusive). `COC(=O)[C@@]1(Cc2ccc(F)cc2)[C@H]2c3cc(C(=O)N(C)C)n(Cc4ccc(C(F)(F)F)nc4)c3C[C@H]2CN1C(=O)c1ccccc1`: the AC50 was 20 µM (inconclusive). As to `c1ccc(CNc2ncncc2-c2cccnc2)cc1`, the AC50 was 39.8 µM (inconclusive). For `COC(=O)[C@@]1(Cc2ccc(F)cc2)[C@H]2c3cc(C(=O)N(C)C)n(Cc4ccc(C)o4)c3C[C@H]2CN1C(=O)c1ccccc1`, the AC50 is 39.8 µM (inconclusive). On the same count and under the same terms, for `[H]/N=C(\N/C(=N/[H])Nc1ccc(Cl)cc1)NC(C)C` [PROGUANIL] the value was 10 µM (inconclusive).

Another assay has as its target T1, Heat shock factor protein 1 (Mus musculus, UniProt P38532).
T1 sequence (P38532 whole entry): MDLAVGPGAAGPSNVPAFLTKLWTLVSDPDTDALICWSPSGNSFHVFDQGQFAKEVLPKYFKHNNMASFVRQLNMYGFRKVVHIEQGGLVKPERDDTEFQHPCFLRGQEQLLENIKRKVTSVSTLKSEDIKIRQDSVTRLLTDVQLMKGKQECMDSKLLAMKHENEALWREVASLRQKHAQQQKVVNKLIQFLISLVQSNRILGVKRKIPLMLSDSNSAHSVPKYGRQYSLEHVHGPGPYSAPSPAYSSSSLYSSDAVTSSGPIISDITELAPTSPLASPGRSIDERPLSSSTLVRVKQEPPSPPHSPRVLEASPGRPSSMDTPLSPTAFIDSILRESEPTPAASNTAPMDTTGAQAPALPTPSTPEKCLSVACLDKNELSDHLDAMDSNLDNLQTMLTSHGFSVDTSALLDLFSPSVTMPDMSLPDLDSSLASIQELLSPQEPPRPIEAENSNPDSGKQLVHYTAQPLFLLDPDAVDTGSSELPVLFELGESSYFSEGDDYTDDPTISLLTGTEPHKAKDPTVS
The assay can be described thus: inhibition of MG132-induced HSE-luciferase signal, confirmation, cell-based, NIH3T3, luminescence, dose retest (AID 2382).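 Also: NIH3T3 fibroblasts with HSF1-driven luciferase reporter stressed by proteasome inhibitor MG132; luminescence from HSF1-driven luciferase expression after 8 hours of MG132 stress.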 The format is functional.
For `O=C(Nc1ccc(Cl)cc1)C1CCCN1C(=O)NCc1ccccc1` (stereo not given), the EC50 is on record as > 195 µM (not active). As for `Cc1cc(NC(=O)Cn2ccc([N+](=O)[O-])n2)no1`, the EC50 was > 195 µM (not active). As to `Cc1cc(=O)oc2c(C)c(OC(C)C(=O)NCCCN3CCOCC3)ccc12` (stereo not given), the EC50 was > 195 µM (not active). `CC(C)c1ccc2oc(=O)cc(CN3CCCCC3)c2c1`: the EC50 is recorded as > 195 µM (not active).

On to `CCc1nnc(NC(=O)CSc2nc(C)c3c(c2C#N)CCCC3)s1`, for which the EC50 is reported as > 195 µM (not active). Consider `Fc1ccc(-n2cc(CNCCc3ccccn3)c(-c3ccccc3Cl)n2)cc1`, for which the EC50 was > 195 µM (not active). In the case of `CCC(=O)N(CCC(c1ccco1)c1ccccc1OC)Cc1cccs1` (stereo not given), the EC50 is listed as > 195 µM (not active). Turning to `COc1ccc(-c2nn(-c3ccccc3)cc2/C=C(\CC(=O)O)c2nc3ccccc3s2)cc1OC`, the EC50 is reported as > 195 µM (not active). As to `O=C(CC(Nc1ccccc1Cl)C(=O)OCC(=O)c1cccs1)c1ccccc1` (stereo not given), the concentration giving a half-maximal response (EC50) was 0.847 µM (active). `O=C(Nc1ccc(F)cc1F)c1cc2nc3c(c(C(F)(F)F)n2n1)CCCC3`: the EC50 was < 0.16 µM (active). The same measure, in the same setting: for `O=C(CCN1C(=O)/C(=C/c2ccc(F)cc2)SC1=S)NCCCn1ccnc1` the value was > 195 µM (not active); for `CCN(Cc1ccccc1)S(=O)(=O)c1ccc(F)cc1`, > 195 µM (not active). For the compound `O=C(CN1CCN(Cc2ccccc2)CC1)N/N=C\C=C/c1ccco1`, the EC50 was > 195 µM (not active). Same read-out and setting: under `Cc1oc(/C=N/NC(=O)CC2(C)OCCO2)cc1Br` stands > 195 µM (not active).

As for `Cc1ccc(-c2n[nH]cc2/C=N/n2c(C)nc3ccccc3c2=O)cc1`, the 50% effective concentration (EC50) is reported as > 195 µM (not active). Take `C/C(Cc1ccccc1)=N\NC(=O)CNC(=O)Cc1ccc(Cl)cc1`: the EC50 is on record as > 195 µM (not active).

The AC50 is the concentration at which the activity in the assay is half-maximal. A word on the EC50: it is the midpoint of the concentration-response curve.
